# From ChEMBL document CHEMBL1125120, “Synthesis and anticonvulsant and sedative-hypnotic activity of 4-(alkylimino)-2,3-dihydro-4H-1-benzopyrans and -benzothiopyrans” (J Med Chem, 1990)
# Calls of active or inactive are those of the source. No cut-off for these calls is given here.
# Tests used:
# Mus musculus [1] = assay: Ability to inhibit seizures induced by electroshock in mice administered per orally; assay type: functional; settings: po
# Mus musculus [2] = assay: Ability to inhibit seizures induced by mercaptopropionic acid in mice administered per orally; assay type: functional; settings: po
# Mus musculus [3] = assay: Ability to inhibit seizures induced by pentylenetetrazole in mice administered per orally; assay type: functional; settings: po
# Mus musculus [4] = assay: Ability to inhibit seizures induced by electroshock in mice administered per orally; i = inactive; assay type: functional, organism-based
# Mus musculus [5] = assay: Ability to inhibit seizures induced by mercaptopropionic acid in mice administered per orally; i = inactive; assay type: functional, organism-based
# [6] = (§1) Acute toxicity administered per orally; assay type: organism-based; settings: mouse, in vivo, po
# Rattus norvegicus [7] = assay: Ability to potentiate pentobarbital-induced sleep administered per orally; assay type: functional; settings: po
# Rattus norvegicus [8] = assay: Ability to potentiate pentobarbital-induced sleep administered per orally; i = inactive; assay type: functional, organism-based
# Mus musculus [9] = assay: as §1; assay type: functional; settings: po
Structure (SMILES),ED50 (Mus musculus [1]) [mg/kg],ED50 (Mus musculus [2]) [mg/kg],ED50 (Mus musculus [3]) [mg/kg],ED50 (Mus musculus [4]),ED50 (Mus musculus [5]),LD50 [6] [mg/kg],ED50 (Rattus norvegicus [7]) [mg/kg],ED50 (Rattus norvegicus [8]),LD50 (Mus musculus [9]) [mg/kg]
CN1C(=O)CN=C(c2ccccc2)c2cc(Cl)ccc21 [DIAZEPAM],1.2,0.7,0.5,–,–,–,–,–,–
CCCCc1cc(O)c2c(c1)OC(C)(C)C[C@H]2NCC(C)O (stereo not given in full),–,–,15.5,inactive,inactive,800,14.2,–,–
CCCCCc1cc(O)c2c(c1)OC(C)(C)C/C2=N\CC(C)O (stereo not given),–,–,24.3,inactive,inactive,800,–,inactive,–
CCCCCc1cc(O)c2c(c1)SC(C)(C)C/C2=N\CC(C)O (stereo not given),–,–,14.3,inactive,–,> 800,10,–,–
CCCCCc1cc(O)c2c(c1)SC(C)(C)C/C2=N\CCO,–,–,24,inactive,inactive,–,–,inactive,> 800
CCCC(CCC)C(=O)[O-].[Na+] [VALPROATE SODIUM],206,200,200,–,–,–,–,–,–
CCCCCc1cc(O)c2c(c1)OC(C)(C)C/C2=N\C[C@@H](C)O,13.8,9.4,14,–,–,800,–,inactive,–
CCCCCc1cc(O)c2c(c1)OC(C)(C)C/C2=N\CCO,–,–,19,inactive,inactive,> 800,–,inactive,–
CCCCCc1cc(O)c2c(c1)SC(C)(C)C[C@H]2NCC(C)O (stereo not given in full),20.6,8.8,4.8,–,–,> 1600,9.7,–,–
